Test system: Jurkat T cells
Assay: mRNA sequencing of activated Jurkat T cells
Format: cell-based, human
Details: Jurkat T cells, P + I

Compound: C=CC[C@@H]1/C=C(\C)C[C@H](C)C[C@H](OC)[C@H]2O[C@@](O)(C(=O)C(=O)N3CCCC[C@H]3C(=O)O[C@H](/C(C)=C/[C@@H]3CC[C@@H](O)[C@H](OC)C3)[C@H](C)[C@@H](O)CC1=O)[C@H](C)C[C@@H]2OC [FK506, Tacrolimus, reference compound]
- ABTB2 FPKM: 2.549 FPKM
- ACAP1 FPKM: 35.261 FPKM
- ACSF3 FPKM: 22.755 FPKM
- ADA FPKM: 74.531 FPKM
- ADAMTS17 FPKM: 0.843 FPKM
- ADCYAP1 FPKM: 3.646 FPKM
- ADORA2A FPKM: 0.998 FPKM
- AFF2 FPKM: 4.374 FPKM
- AGK FPKM: 14.029 FPKM
- ALDH1A2 FPKM: 7.041 FPKM
- ALOX5AP FPKM: 92.971 FPKM
- ANKEF1 FPKM: 3.081 FPKM
- ANO8 FPKM: 3.26 FPKM
- ANTXR2 FPKM: 53.159 FPKM
- APH1B FPKM: 5.12 FPKM
- APOBEC3B-AS1 FPKM: 13.251 FPKM
- APOBEC3F FPKM: 5.861 FPKM
- APOBEC3G FPKM: 8.803 FPKM
- APOL1 FPKM: 4.036 FPKM
- ARHGAP4 FPKM: 15.97 FPKM
- ARHGAP25 FPKM: 3.447 FPKM
- ARHGAP31 FPKM: 10.889 FPKM
- ARHGEF3 FPKM: 8.637 FPKM
- ARPP21 FPKM: 1.29 FPKM
- ASB13 FPKM: 2.277 FPKM
- ASNS FPKM: 20.436 FPKM
- ATHL1 FPKM: 4.597 FPKM
- ATP2A3 FPKM: 47.81 FPKM
- ATP6V0A4 FPKM: 21.385 FPKM
- ATP6V1B2 FPKM: 50.672 FPKM
- ATPAF1 FPKM: 11.764 FPKM
- AVPR2 FPKM: 1.21 FPKM
- B2M FPKM: 1155.981 FPKM
- BAHCC1 FPKM: 1 FPKM
- BCL2A1 FPKM: 21.118 FPKM
- BCL2L1 FPKM: 39.402 FPKM
- BCL3 FPKM: 14.57 FPKM
- BCL6 FPKM: 15.181 FPKM
- BCL7A FPKM: 12.185 FPKM
- BCL11B FPKM: 3.688 FPKM
- BEND6 FPKM: 1.416 FPKM
- BIN1 FPKM: 2.374 FPKM
- BIRC3 FPKM: 30.767 FPKM
- C10orf55 FPKM: 7.632 FPKM
- C11orf74 FPKM: 0.365 FPKM
- C21orf58 FPKM: 5.847 FPKM
- CABP1 FPKM: 1.201 FPKM
- CAMK2D FPKM: 5.855 FPKM
- CARHSP1 FPKM: 20.082 FPKM
- CBFA2T3 FPKM: 12.236 FPKM
- CBLB FPKM: 8.881 FPKM
- CBS FPKM: 3.935 FPKM
- CBX2 FPKM: 2.786 FPKM
- CCDC15 FPKM: 3.535 FPKM
- CCL3 FPKM: 0 FPKM
- CCL3L3 FPKM: 0 FPKM
- CCL20 FPKM: 0 FPKM
- CCND3 FPKM: 30.402 FPKM
- CCNE2 FPKM: 6.298 FPKM
- CD1B FPKM: 4.115 FPKM
- CD1E FPKM: 4.975 FPKM
- CD70 FPKM: 3.005 FPKM
- CD82 FPKM: 171.933 FPKM
- CD97 FPKM: 19.394 FPKM
- CD200 FPKM: 0 FPKM
- CD274 FPKM: 7.13 FPKM
- CDKN1A FPKM: 39.264 FPKM
- CDKN2D FPKM: 17.642 FPKM
- CECR1 FPKM: 5.304 FPKM
- CENPM FPKM: 13.201 FPKM
- CEP70 FPKM: 14.887 FPKM
- CERKL FPKM: 13.458 FPKM
- CFLAR FPKM: 3.438 FPKM
- CHEK2 FPKM: 8.907 FPKM
- CHPF2 FPKM: 36.42 FPKM
- CHPF FPKM: 9.759 FPKM
- CHRNA3 FPKM: 4.293 FPKM
- CHST12 FPKM: 13.527 FPKM
- CNN2 FPKM: 30.77 FPKM
- COL27A1 FPKM: 4.463 FPKM
- CPD FPKM: 23.208 FPKM
- CREB3L2 FPKM: 5.62 FPKM
- CREB5 FPKM: 0.577 FPKM
- CSF1 FPKM: 1.706 FPKM
- CSF2 FPKM: 0 FPKM
- CXCL8 FPKM: 0.937 FPKM
- CXCL11 FPKM: 0.695 FPKM
- CXCR4 FPKM: 38.979 FPKM
- CYTH1 FPKM: 33.17 FPKM
- DBP FPKM: 2.396 FPKM
- DCBLD2 FPKM: 13.786 FPKM
- DENND5A FPKM: 24.792 FPKM
- DNAJB5 FPKM: 19.238 FPKM
- DSTYK FPKM: 3.501 FPKM
- DTL FPKM: 5.862 FPKM
- DTX1 FPKM: 4.414 FPKM
- DUSP6 FPKM: 9.728 FPKM
- DUSP10 FPKM: 11.981 FPKM
- E2F7 FPKM: 4.531 FPKM
- ECE1 FPKM: 20.046 FPKM
- EFHD2 FPKM: 180.233 FPKM
- EGR1 FPKM: 218.444 FPKM
- EGR2 FPKM: 11.435 FPKM
- EHBP1L1 FPKM: 7.073 FPKM
- EMP1 FPKM: 4.613 FPKM
- ETS1 FPKM: 50.032 FPKM
- FADS2 FPKM: 67.903 FPKM
- FAM64A FPKM: 7.456 FPKM
- FAT1 FPKM: 13.036 FPKM
- FBLN2 FPKM: 3.348 FPKM
- FKBP5 FPKM: 8.687 FPKM
- FLI1 FPKM: 13.241 FPKM
- FOSL1 FPKM: 10.499 FPKM
- FOSL2 FPKM: 2.204 FPKM
- FXYD5 FPKM: 41.346 FPKM
- FYN FPKM: 16.523 FPKM
- GAD1 FPKM: 2.246 FPKM
- GFOD1 FPKM: 4.187 FPKM
- GFRA1 FPKM: 0.991 FPKM
- GKAP1 FPKM: 2.692 FPKM
- GLRB FPKM: 1.62 FPKM
- GLRX FPKM: 25.315 FPKM
- GNG4 FPKM: 5.365 FPKM
- GPC2 FPKM: 5.785 FPKM
- GPR17 FPKM: 0.258 FPKM
- GPR68 FPKM: 8.916 FPKM
- GSE1 FPKM: 17.37 FPKM
- GTDC1 FPKM: 4.629 FPKM
- GXYLT2 FPKM: 5.443 FPKM
- GZMB FPKM: 513.528 FPKM
- HCAR1 FPKM: 7.167 FPKM
- HIVEP3 FPKM: 20.041 FPKM
- HLA-A FPKM: 181.069 FPKM
- HLA-B FPKM: 116.079 FPKM
- HPGD FPKM: 6.064 FPKM
- IFIT3 FPKM: 6.495 FPKM
- IKZF2 FPKM: 8.561 FPKM
- IL2 FPKM: 0.287 FPKM
- IL4R FPKM: 9.842 FPKM
- IL10RA FPKM: 2.828 FPKM
- IL15 FPKM: 2.654 FPKM
- IL15RA FPKM: 5.979 FPKM
- IL21R FPKM: 2.244 FPKM
- IL21R-AS1 FPKM: 1.927 FPKM
- IL27RA FPKM: 10.817 FPKM
- IQCJ-SCHIP1 FPKM: 1.657 FPKM
- IQGAP2 FPKM: 4.857 FPKM
- IRF1 FPKM: 141.607 FPKM
- IRF2 FPKM: 34.99 FPKM
- IRF4 FPKM: 0.423 FPKM
- IRF7 FPKM: 21.167 FPKM
- ITGA4 FPKM: 39.099 FPKM
- ITGAL FPKM: 10.212 FPKM
- ITK FPKM: 58.558 FPKM
- JAK2 FPKM: 5.248 FPKM
- KCNK1 FPKM: 10.967 FPKM
- KIAA0101 FPKM: 21.727 FPKM
- KIAA0247 FPKM: 8.032 FPKM
- KIR3DX1 FPKM: 3.048 FPKM
- KLF10 FPKM: 25.627 FPKM
- KLF12 FPKM: 6.506 FPKM
- KREMEN1 FPKM: 3.122 FPKM
- LAIR1 FPKM: 8.298 FPKM
- LDLRAD4 FPKM: 6.21 FPKM
- LEF1-AS1 FPKM: 3.747 FPKM
- LEF1 FPKM: 74.102 FPKM
- LGMN FPKM: 1.42 FPKM
- LIF FPKM: 0.143 FPKM
- LIMS2 FPKM: 4.122 FPKM
- LINC00659 FPKM: 10.239 FPKM
- LINC01260 FPKM: 7.672 FPKM
- LMNA FPKM: 4.62 FPKM
- LMO1 FPKM: 1.094 FPKM
- LOC653712 FPKM: 4.163 FPKM
- LOC100506688 FPKM: 1.625 FPKM
- LOC101926963 FPKM: 4.541 FPKM
- LOC101927497 FPKM: 9.413 FPKM
- LPAR6 FPKM: 8.449 FPKM
- LRRC8C FPKM: 10.058 FPKM
- LRRC20 FPKM: 3.843 FPKM
- LTBP4 FPKM: 8.427 FPKM
- LUCATI FPKM: 12.516 FPKM
- MAFF FPKM: 16.977 FPKM
- MAGEA4 FPKM: 3.908 FPKM
- MAL FPKM: 2.664 FPKM
- MAMLD1 FPKM: 5.995 FPKM
- MAP3K7CL FPKM: 2.247 FPKM
- MAST4 FPKM: 3.498 FPKM
- MAZ FPKM: 112.102 FPKM
- MCM2 FPKM: 22.07 FPKM
- MCTP2 FPKM: 5.326 FPKM
- METRN FPKM: 1.779 FPKM
- MFAP4 FPKM: 0.663 FPKM
- MGAT4A FPKM: 8.906 FPKM
- MICAL2 FPKM: 1.763 FPKM
- MIR22HG FPKM: 9.248 FPKM
- MIR3652 FPKM: 547.182 FPKM
- MIR6775 FPKM: 19.643 FPKM
- MIR6821 FPKM: 13.626 FPKM
